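Dose response: 5 concentrations. Exposure: 48 h. Format: 96-well plates. Endpoint: linear interpolation; highest concentration if not reached. GI50 = concentration required for 50% inhibition of growth.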 The source made the active and inactive calls. No stated cut-off is given here; in the data, active = GI50 up to about 1.1 µM and inactive = higher.
How the values were obtained:
Assay in all cases: NCI anticancer screen, dose series, 48 h
[1] = tested on: Malme-3M
[2] = tested on: NCI-H460
[3] = tested on: Hs-578T
[4] = tested on: RXF 393
[5] = tested on: BT-549
[6] = tested on: UACC-62
[7] = tested on: SK-MEL-5
[8] = tested on: NCI-H23
[9] = tested on: DU-145
[10] = tested on: HCT-116
[11] = tested on: KM12
[12] = tested on: HOP-62
[13] = tested on: ACHN
[14] = tested on: SF-539
[15] = tested on: HCT-15
[16] = tested on: K562
[17] = tested on: M14
[18] = tested on: OVCAR-4
[19] = tested on: HOP-92

| Structure (SMILES) | GI50 [1] | GI50 [2] | GI50 [3] | GI50 [4] | GI50 [5] | GI50 [6] | GI50 [7] | GI50 [8] | GI50 [9] | GI50 [10] | GI50 [11] | GI50 [12] | GI50 [13] | GI50 [14] | GI50 [15] [µM] | GI50 [16] | GI50 [17] | GI50 [18] | GI50 [19] |
| --- | --- | --- | --- | --- | --- | --- | --- | --- | --- | --- | --- | --- | --- | --- | --- | --- | --- | --- | --- |
| N#Cc1c(N)nc(S)c(C#N)c1-c1ccccc1 | > 100 µM (inactive) | > 100 µM (inactive) | > 100 µM (inactive) | > 100 µM (inactive) | 54 µM (inactive) | > 100 µM (inactive) | > 100 µM (inactive) | > 100 µM (inactive) | > 100 µM (inactive) | > 100 µM (inactive) | > 100 µM (inactive) | > 100 µM (inactive) | > 100 µM (inactive) | > 100 µM (inactive) | > 100 | > 100 µM (inactive) |  |  |  |
| O=C(O)Cc1ccc([N+](=O)[O-])cc1[N+](=O)[O-] | > 100 µM (inactive) | > 100 µM (inactive) | 70.6 µM (inactive) | > 100 µM (inactive) | > 100 µM (inactive) | > 100 µM (inactive) | > 100 µM (inactive) | > 100 µM (inactive) | > 100 µM (inactive) | > 100 µM (inactive) | > 100 µM (inactive) | > 100 µM (inactive) | > 100 µM (inactive) | > 100 µM (inactive) | > 100 | > 100 µM (inactive) | > 100 µM (inactive) | > 100 µM (inactive) |  |
| CC(=O)c1cccc(Nc2nc3ccc(Cl)cc3c3[nH]c4ccccc4c23)c1 | 4.95 µM (inactive) | 1.71 µM (inactive) | 9.35 µM (inactive) |  | 64.1 µM (inactive) | 2.19 µM (inactive) | 1.44 µM (inactive) | 12.8 µM (inactive) | 4.35 µM (inactive) | 3.85 µM (inactive) | 4.94 µM (inactive) | 4.17 µM (inactive) | 4.11 µM (inactive) | 5.28 µM (inactive) | 6.08 | 1.41 µM (inactive) | 11 µM (inactive) |  | 3.48 µM (inactive) |
| CC1=CC2C(O1)C1C(=O)C=CC(=O)C1=CC2[N+](=O)[O-] (centres undefined) |  | 18.6 µM (inactive) | 18.1 µM (inactive) | 14.8 µM (inactive) | 15.8 µM (inactive) | 18.6 µM (inactive) | 17.5 µM (inactive) | 19.9 µM (inactive) | 25.4 µM (inactive) | 13.8 µM (inactive) | 24.3 µM (inactive) | 21 µM (inactive) | 5.3 µM (inactive) | 33.5 µM (inactive) | 19.1 | 7.67 µM (inactive) | 14 µM (inactive) | 17.3 µM (inactive) | 2.14 µM (inactive) |
| CCOC(=O)/C(=N\Nc1ccc(-n2c(C)nc3ccccc3c2=O)cc1)C(C)=O |  | 92.9 µM (inactive) | 20.7 µM (inactive) |  | 33.3 µM (inactive) | 29.8 µM (inactive) | 2.25 µM (inactive) | 50.5 µM (inactive) | 80.2 µM (inactive) | 36 µM (inactive) | 17.7 µM (inactive) | 40.2 µM (inactive) | 32.4 µM (inactive) | 51.8 µM (inactive) | 37.7 | 32.6 µM (inactive) | 24.2 µM (inactive) |  | 11.9 µM (inactive) |
| CN(C(=O)Cc1cccc(N=C=S)c1)[C@H]1CCCC[C@@H]1N1CCCC1 | 22.4 µM (inactive) | 16.7 µM (inactive) | 25.3 µM (inactive) | 12.9 µM (inactive) | 11 µM (inactive) | 15.7 µM (inactive) | 5.73 µM (inactive) | 14.2 µM (inactive) | 14.6 µM (inactive) | 13 µM (inactive) | 17.9 µM (inactive) | 16.3 µM (inactive) | 14.1 µM (inactive) |  | 14.5 | 7.59 µM (inactive) | 17.8 µM (inactive) | 14.7 µM (inactive) | 13.8 µM (inactive) |
| C/C=C\C(CC(=O)NCC(=O)c1c[nH]c2ccccc12)CC(=O)OC (centres undefined) | > 100 µM (inactive) | > 100 µM (inactive) | > 100 µM (inactive) | > 100 µM (inactive) | > 100 µM (inactive) | > 100 µM (inactive) | > 100 µM (inactive) | > 100 µM (inactive) | > 100 µM (inactive) | > 100 µM (inactive) | > 100 µM (inactive) | > 100 µM (inactive) | > 100 µM (inactive) |  | > 100 | > 100 µM (inactive) | > 100 µM (inactive) | > 100 µM (inactive) | > 100 µM (inactive) |
| Clc1ccc(-c2ccc(-c3nnc(CCc4nnc(-c5ccc(-c6ccc(Cl)cc6)o5)o4)o3)o2)cc1 |  | > 100 µM (inactive) | 14.8 µM (inactive) | 25.8 µM (inactive) | > 100 µM (inactive) | > 100 µM (inactive) | > 100 µM (inactive) | > 60.5 µM (inactive) | > 100 µM (inactive) | > 100 µM (inactive) | > 100 µM (inactive) | > 50.8 µM (inactive) | > 55.6 µM (inactive) | 27.3 µM (inactive) | > 100 | 7.93 µM (inactive) | > 100 µM (inactive) | > 100 µM (inactive) | > 27.5 µM (inactive) |
| CCON1CC(C(=O)OC)=C(O)C1=O | > 100 µM (inactive) | > 100 µM (inactive) | > 100 µM (inactive) | > 100 µM (inactive) | > 100 µM (inactive) | > 100 µM (inactive) | > 100 µM (inactive) | > 100 µM (inactive) | > 100 µM (inactive) | > 100 µM (inactive) | > 100 µM (inactive) | > 100 µM (inactive) | > 100 µM (inactive) |  | > 100 | > 100 µM (inactive) | > 100 µM (inactive) | > 100 µM (inactive) | > 100 µM (inactive) |
| CC(=O)Oc1ccc2c3c1[C@H]1O[C@H]1c1cccc(c1-3)[C@@H]1O[C@H]21 | 2.72 µM (inactive) |  | 5.58 µM (inactive) | 0.409 µM (active) | 8.97 µM (inactive) | 8 µM (inactive) | 4.25 µM (inactive) | 4.92 µM (inactive) | 7.83 µM (inactive) | 11.2 µM (inactive) | 12.6 µM (inactive) | 5.19 µM (inactive) | 18.3 µM (inactive) |  | 5 | 5.02 µM (inactive) | 4.81 µM (inactive) | 7.23 µM (inactive) | 9.68 µM (inactive) |
| CN1CCN(CC(=O)N2CCCn3c2nc2ccccc2c3=O)CC1 | > 100 µM (inactive) | > 100 µM (inactive) | > 100 µM (inactive) |  | > 100 µM (inactive) | > 100 µM (inactive) | > 100 µM (inactive) | > 100 µM (inactive) | > 100 µM (inactive) | > 100 µM (inactive) | > 100 µM (inactive) | > 100 µM (inactive) | > 100 µM (inactive) | > 100 µM (inactive) | > 100 | > 100 µM (inactive) | > 100 µM (inactive) | > 100 µM (inactive) | 48.2 µM (inactive) |
| Cc1cc(=O)oc2c(C)c3oc(CBr)cc3cc12 | 19.2 µM (inactive) | 17.2 µM (inactive) | 35.6 µM (inactive) |  | 15.3 µM (inactive) | 18.5 µM (inactive) | 13.2 µM (inactive) | 18.3 µM (inactive) | 33.6 µM (inactive) | 18.5 µM (inactive) | 19.1 µM (inactive) | 16.2 µM (inactive) | 15.8 µM (inactive) | 20.9 µM (inactive) | 18.2 | 19.9 µM (inactive) | 18.2 µM (inactive) | 25.8 µM (inactive) |  |
| CC1=NN(c2nc(N)nc(CO)n2)C(C)(C)C1 |  |  | > 100 µM (inactive) | > 100 µM (inactive) | > 100 µM (inactive) | > 100 µM (inactive) | > 100 µM (inactive) | > 100 µM (inactive) | > 100 µM (inactive) | > 100 µM (inactive) | > 100 µM (inactive) | > 100 µM (inactive) | > 100 µM (inactive) | > 100 µM (inactive) | > 100 | > 100 µM (inactive) | > 100 µM (inactive) | > 100 µM (inactive) | > 100 µM (inactive) |
| Cc1cc2c(c(=O)n1C)SCC2 | > 100 µM (inactive) | > 100 µM (inactive) | > 100 µM (inactive) | > 100 µM (inactive) | > 100 µM (inactive) | > 100 µM (inactive) | > 100 µM (inactive) | > 100 µM (inactive) | > 100 µM (inactive) | > 100 µM (inactive) | > 100 µM (inactive) | > 100 µM (inactive) | > 100 µM (inactive) |  | > 100 | > 100 µM (inactive) | > 100 µM (inactive) | > 100 µM (inactive) | > 100 µM (inactive) |
| CC(C)[C@H]1NC(=O)[C@H]2N=C(O[C@@H]2C)[C@@H]2CCCN2C(=O)[C@H](Cc2ccccc2)NC(=O)[C@@H]2CSC(=N2)[C@@H](Cc2ccccc2)NC(=O)[C@@H]2CSC1=N2 | > 100 µM (inactive) |  | > 100 µM (inactive) | 61.4 µM (inactive) | > 100 µM (inactive) | 50 µM (inactive) | 95.9 µM (inactive) | > 100 µM (inactive) | > 100 µM (inactive) | 90.8 µM (inactive) | 88.1 µM (inactive) | > 100 µM (inactive) | > 100 µM (inactive) | > 100 µM (inactive) | > 100 | 92.9 µM (inactive) | > 100 µM (inactive) | 38.2 µM (inactive) |  |
| N=C(N)SCCSC(=N)N | > 100 µM (inactive) | > 100 µM (inactive) | > 100 µM (inactive) | > 100 µM (inactive) | > 100 µM (inactive) | > 100 µM (inactive) | > 100 µM (inactive) | > 100 µM (inactive) | > 100 µM (inactive) | > 100 µM (inactive) | > 100 µM (inactive) | > 100 µM (inactive) | > 100 µM (inactive) |  | > 100 | > 100 µM (inactive) | > 100 µM (inactive) | > 100 µM (inactive) | > 100 µM (inactive) |

— ChEMBL document CHEMBL1201862, “PubChem BioAssay data set” (2004)
